PubChem BioAssay (NCI)
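Protocol summary: plate cells (96-well), add compound at 5 concentrations, incubate 48 h, interpolate endpoints linearly. GI50: concentration for 50% inhibition of growth. Definition used: TGI = concentration required for complete inhibition of growth.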

Assays:
Assay in all cases: NCI anticancer screen, dose series, 48 h
[1] = tested on: SK-OV-3 ovarian
[2] = tested on: IGROV1 ovarian
[3] = tested on: SNB-75 CNS
[4] = tested on: UO-31 renal
[5] = tested on: MALME-3M melanoma
[6] = tested on: NCI-H460 lung
[7] = tested on: SF-295 CNS
[8] = tested on: NCI/ADR-RES ovarian
[9] = tested on: OVCAR-5 ovarian
[10] = tested on: UACC-257 melanoma
[11] = tested on: K-562 leukemia
[12] = tested on: NCI-H226 lung
[13] = tested on: MDA-MB-435
[14] = tested on: SW-620 colon
[15] = tested on: OVCAR-4 ovarian
[16] = tested on: CCRF-CEM leukemia
[17] = tested on: COLO 205 colon
[18] = tested on: T-47D breast
[19] = tested on: HS 578T breast
[20] = tested on: SF-268 CNS
[21] = tested on: OVCAR-3 ovarian
[22] = tested on: RPMI-8226 leukemia
[23] = tested on: DU-145 prostate
[24] = tested on: NCI-H23 lung
[25] = tested on: SF-539 CNS
[26] = tested on: HOP-62 NSCLC
[27] = tested on: SK-MEL-2 melanoma
[28] = tested on: NCI-H522 lung
[29] = tested on: HL-60(TB) leukemia
[30] = tested on: M14 melanoma
[31] = tested on: HOP-92 NSCLC
[32] = tested on: A549 NSCLC
[33] = tested on: SK-MEL-5 melanoma
[34] = tested on: HCT-15 colon
[35] = tested on: ACHN renal
[36] = tested on: UACC-62 melanoma
[37] = tested on: BT-549 breast
[38] = tested on: CAKI-1 renal
[39] = tested on: KM12 colon
[40] = tested on: HT29 colon
[41] = tested on: SK-MEL-28 melanoma
[42] = tested on: PC-3 prostate
[43] = tested on: EKVX NSCLC
[44] = tested on: RXF 393 renal
[45] = tested on: MDA-MB-231 breast
[46] = tested on: HCC-2998 colon
[47] = tested on: MOLT-4 leukemia
[48] = tested on: SN12C renal
[49] = tested on: MCF7 breast
[50] = tested on: U251 CNS
[51] = tested on: HCT-116 colon
[52] = tested on: SNB-19 CNS
[53] = tested on: 786-0 renal
[54] = tested on: TK-10 renal
[55] = tested on: OVCAR-8 ovarian

N=C(N)c1ccc(-c2ccc(-c3ccc(F)cc3)s2)nc1
GI50 [1]: 11 µM
TGI [1]: 28.9 µM
GI50 [2]: 1.78 µM
TGI [2]: 3.61 µM
GI50 [3]: 1.55 µM
TGI [3]: 4.05 µM
GI50 [4]: 1.53 µM
TGI [4]: 2.87 µM
GI50 [5]: 1.71 µM
TGI [5]: 3.21 µM
GI50 [6]: 1.88 µM
TGI [6]: 3.68 µM
GI50 [7]: 1.85 µM
TGI [7]: 3.63 µM
GI50 [8]: 2.72 µM
TGI [8]: 6.86 µM
GI50 [9]: 1.73 µM
TGI [9]: 3.3 µM
GI50 [10]: 2.2 µM
TGI [10]: 5.12 µM
GI50 [11]: 0.374 µM
TGI [11]: 1.75 µM
GI50 [12]: 10.3 µM
TGI [12]: 32.9 µM
GI50 [13]: 1.71 µM
TGI [13]: 3.17 µM
GI50 [14]: 1.84 µM
TGI [14]: 3.65 µM
GI50 [15]: 1.87 µM
TGI [15]: 3.67 µM
GI50 [16]: 2.46 µM
TGI [16]: 6.06 µM
GI50 [17]: 2.12 µM
TGI [17]: 4.76 µM
GI50 [18]: 2.18 µM
TGI [18]: 6.68 µM
GI50 [19]: 2.72 µM
TGI [19]: 8.89 µM
GI50 [20]: 2.51 µM
TGI [20]: 6.98 µM
GI50 [21]: 1.77 µM
TGI [21]: 3.26 µM
GI50 [22]: 2.68 µM
TGI [22]: 6.83 µM
GI50 [23]: 1.83 µM
TGI [23]: 3.27 µM
GI50 [24]: 2.87 µM
TGI [24]: 8.99 µM
GI50 [25]: 1.75 µM
TGI [25]: 3.2 µM
GI50 [26]: 2.39 µM
TGI [26]: 6.21 µM
GI50 [27]: 3.23 µM
TGI [27]: 9.95 µM
GI50 [28]: 2.05 µM
TGI [28]: 4.63 µM
GI50 [29]: 1.46 µM
TGI [29]: 3.38 µM
GI50 [30]: 1.79 µM
TGI [30]: 3.69 µM
GI50 [31]: 2.02 µM
TGI [31]: 8.58 µM
GI50 [32]: 2.11 µM
TGI [32]: 4.78 µM
GI50 [33]: 1.8 µM
TGI [33]: 3.24 µM
GI50 [34]: 1.84 µM
TGI [34]: 3.56 µM
GI50 [35]: 1.81 µM
TGI [35]: 3.2 µM
GI50 [36]: 1.94 µM
TGI [36]: 4.24 µM
GI50 [37]: 5.11 µM
TGI [37]: 30.1 µM
GI50 [38]: 1.67 µM
TGI [38]: 3.06 µM
GI50 [39]: 1.92 µM
TGI [39]: 3.57 µM
GI50 [40]: 2.13 µM
TGI [40]: 5.52 µM
GI50 [41]: 2.13 µM
TGI [41]: 4.45 µM
GI50 [42]: 2.23 µM
TGI [42]: 6.04 µM
GI50 [43]: 4.26 µM
TGI [43]: 22.9 µM
GI50 [44]: 3.84 µM
TGI [44]: 16.9 µM
GI50 [45]: 1.73 µM
TGI [45]: 3.26 µM

c1ccc(-c2cn3nc(N4CCOCC4)sc3n2)cc1
TGI [1]: > 100 µM
TGI [2]: > 100 µM
TGI [3]: > 100 µM
TGI [4]: > 100 µM
TGI [5]: > 100 µM
TGI [6]: > 100 µM
TGI [7]: > 100 µM
TGI [46]: > 100 µM
TGI [47]: > 100 µM
TGI [8]: > 100 µM
TGI [9]: > 100 µM
TGI [10]: > 100 µM
TGI [11]: > 100 µM
TGI [12]: > 100 µM
TGI [13]: > 100 µM
TGI [14]: > 100 µM
TGI [48]: > 100 µM
TGI [15]: > 100 µM
TGI [16]: > 100 µM
TGI [17]: > 100 µM
TGI [18]: > 100 µM
TGI [19]: > 100 µM
TGI [20]: > 100 µM
TGI [49]: > 100 µM
TGI [21]: > 100 µM
TGI [22]: > 100 µM
TGI [23]: > 100 µM
TGI [24]: > 100 µM
TGI [26]: > 100 µM
TGI [27]: > 100 µM
TGI [28]: > 100 µM
TGI [29]: > 100 µM
TGI [30]: > 100 µM
TGI [32]: > 100 µM
TGI [50]: > 100 µM
TGI [33]: > 100 µM
TGI [34]: > 100 µM
TGI [35]: > 100 µM
TGI [51]: > 100 µM
TGI [36]: > 100 µM
TGI [52]: > 100 µM
TGI [37]: > 100 µM
TGI [38]: > 100 µM
TGI [39]: > 100 µM
TGI [40]: > 100 µM
TGI [41]: > 100 µM
TGI [42]: > 100 µM
TGI [43]: > 100 µM
TGI [44]: > 100 µM
TGI [53]: > 100 µM
TGI [54]: > 100 µM
TGI [45]: > 100 µM
TGI [55]: > 100 µM
